From patent US20250179022A1, “COMPOUND USED AS TYK2 INHIBITOR, PREPARATION METHOD THEREFOR, AND PHARMACEUTICAL USE THEREOF” (SHANGHAI ZHIGEN PHARMACEUTICAL & TECHNOLOGY CO. LTD., priority 2022, published 2025)
≈ marks a conversion by molar mass, not a printed value. Read-outs that look alike come from different tables or passages of the source. One block for each compound: values may come before it.

Assays:
JAK2 = target: T1, JAK2 (Homo sapiens, UniProt O60674, cells depend on it, form not given); assay: JAK family kinase selectivity assay, Ba/F3-TEL-JAK2 cell proliferation; format: cell-based; settings: read-out: Ba/F3 Cell IC50 JAK2; Ba/F3-TEL-JAK2, 72 h
T1 construct: fused on or other part: N-terminal part of TEL (ETV6) as oligomerising partner; it is the second protein of the fusion and part of the key; P41212 (Transcription factor ETV6)
Description: (§1) There are four kinases in the JAK family, respectively TYK2, JAK1, JAK2 and JAK3. JAK family kinase genes were introduced into the wild-type murine B lymphocytes (BaF3), and four BaF3 engineered cell lines were constructed respectively (Ba/F3-FL-TYK2-E957D, Ba/F3-TEL-JAK1, Ba/F3-TEL-JAK2, Ba/F3-TEL-JAK3). The growth and proliferation of these engineered cell lines were not dependent on IL-3, but on exogenously transferred JAK family kinases.
(§2) In this experiment, the inhibitory effects of the compounds on the proliferation of four cell types, Ba/F3-FL-TYK2-E957D, Ba/F3-TEL-JAK1, Ba/F3-TEL-JAK2, and Ba/F3-TEL-JAK3 were tested, and apoptosis was detected, and the IC50 values were calculated. The inhibitory activities of the compounds against TYK2, JAK1, JAK2, and JAK3 kinases were evaluated based on the IC50 value, thus assessing the JAK family kinase selectivity of the compounds.
(§3) The tested compounds, powder and stored at room temperature, were prepared into 10 mM stock solution with DMSO and stored at −20° C. away from light for use.
(§4) Compounds were formulated into dilute solutions which was 1000 times of the final concentration. The compound was prepared into 20-times of final concentration by diluting the compound with culture medium. 2 ul of 1000-times compound was added per well to 98 ul of culture medium.
(§5) Cells (provided by Sundia Pharmaceutical Technology (Shanghai) Co., Ltd.) were resuspended and counted using an automated cell counter. The cell suspension was diluted to the desired density based on BaF3 seeding density of 2000 cells per well. Each well was plated with 95 ul of cells and incubated at 37° C. for stable equilibrium. […]
(§6) The cell plate was equilibrated to room temperature. […] Detected with SpectraMax Paradigm.
(§7) • (1) IC50 was calculated using GraphPad Prism 5. • (2) % Inh=(Max signal-Compound signal)/(Max signal-Min signal)×100. • (3) Max signal was the positive control well with only the same volume of DMSO as the compound. • (4) Min signal was the negative control well with only the culture medium.

JAK3 = target: T2, JAK3 (Homo sapiens, UniProt P52333, cells depend on it, form not given); assay: JAK family kinase selectivity assay, Ba/F3-TEL-JAK3 cell proliferation; format: cell-based; settings: read-out: Ba/F3 Cell IC50 JAK3; Ba/F3-TEL-JAK3, 72 h
T2 construct: fused on or other part: N-terminal part of TEL (ETV6) as oligomerising partner; P41212 (Transcription factor ETV6)
Description: as §1, §2, §3, §4, §5, §6, §7

[1] = tested on: IFN-α-induced STAT phosphorylation; assay: IFN-α-induced STAT phosphorylation in human whole blood; format: cell-based; settings: human whole blood, 20 ng/ml IFN-α, pSTAT5 in CD3-positive cells; read-out: IC50, IFN-α inflammatory pathway (IFN-α-induced STAT phosphorylation)
Description: The cytokine receptor attached to TYK2 mediates the signaling of type 1 interferon (IFN-α), which has been identified as the most important inflammatory factor of the autoimmune system. Human whole blood is induced with IFN-α, and TYK2 from lymphocytes in whole blood triggered STAT phosphorylation, which mediated subsequent inflammatory signaling. Therefore, TYK2 inhibitors have an inhibitory effect on IFN-α signaling, and the stronger the TYK2 inhibitory activity, the lower the level of STAT phosphorylation, and the stronger the corresponding anti-inflammatory effect.
In this experiment, the ability of the compounds to inhibit IFN-α-induced STAT phosphorylation in human whole blood were tested, and the IC50 values were calculated. The anti-inflammatory activity of the compounds was evaluated at the tissue level and evaluation of the inhibitory activity of compounds on the IFN-α inflammatory pathway based on the IC50 value.
The tested compound, powder and stored at room temperature, prepared into 10 mM stock solution with DMSO and stored at −80° C. in the refrigerator.
1× Fix/Lysis solution preparation: 5× Fix/Lysis and ddH2O were diluted according to 1:4 and preheated in 37° C. incubator, waiting for use.
Flow cytometric staining buffer preparation: 1 g of bovine serum albumin (BSA) and 1 mL of EDTA (0.5 M) solution were added to 500 mL of phosphate buffer solution (PBS) and stored at 4° C. in the refrigerator.
Compound dilution solution: 0.5 g of bovine serum albumin (BSA) was added to 500 mL of phosphate buffer solution (PBS), and stored at 4° C. in the refrigerator.
50 μg/mL IFN-alpha was diluted to 400 ng/mL with Compound Diluent and set aside.
67.5 μL of human whole blood was added to a 96-well plate using a 300 μL electric volley gun. 3.5 μL of prepared test compound was added, mixed well and placed in the cell culture incubator. After 60 min incubation, 400 ng/mL IFN-α (Biolegend 592702, final concentration 20 ng/ml) was added. The obtained was mixed well and placed in the cell culture incubator to continue incubation for 15 min.
After cytokine stimulation, 5 ul of PE-CD3 (BD 555333) antibody was added to each well, mixed and incubation was continued at 4° C. in the refrigerator. At the end, whole blood was transferred to a 96-well deep-well plate using a volley gun, pre-warmed 1× Fix/Lysis solution was added, and cells were lysed and fixed for 12 minutes at 37° C. in an incubator. After being washed, 400 μL of Perm III solution was added, vortexed and incubated on ice for 30 minutes. Cells were then stained by 100 μL of APC-pSTAT5 (1:100) antibody for 50 min at room temperature. This was followed by flow-through instrumentation. The expression of pSTAT5 was quantified by median fluorescence intensity after gating the CD3-positive signaling cluster.

[2] = In vivo pharmacokinetic experiment in rats (oral); parameters: species or system SD rats; settings: 5 mg/kg
Description: Experimental method: Healthy male SD rats were randomly grouped into 3 rats in each group and given the test compound orally. The rats were fasted for 12 h before the gavage experiment, and drank water freely, and were fed uniformly for 4 h after the administration of the compounds. Before (0 h) and 0.25, 0.5, 1.0, 2.0, 4.0, 6.0, 8.0 and 24 h after the administration of the test compounds, 0.2 mL of blood was collected from the jugular vein at the above set time points and placed in EDTA-K2 tubes, and the whole blood was collected and stored temporarily in an ice-water bath, and then centrifuged at 11,000 rpm for 5 min within 30 min, the plasma was separated, and frozen at −70° C. in a refrigerator for testing.

[3] = Solubility in water (at pH=7); format: physicochemical
Description: Test Example 6: Solubility of the Compounds of the Invention in Water (at pH=7)

[4] = dogs, 2 mg/kg, literature values; cited from earlier work
TYK2 = target: T3, TYK2 (Homo sapiens, UniProt P29597, E957D); assay: TYK2 kinase activity inhibition assay (Ba/F3-FL-TYK2-E957D cell proliferation, CellTiter-Glo); format: cell-based; settings: 72 h
T3 construct: host or cells: Ba/F3 (murine B lymphocytes)
Description: The TYK2 kinase gene was introduced into wild-type murine-derived B lymphocytes (BaF3) to construct the Ba/F3-FL-TYK2-E957D stable cell line.
In this experiment, the inhibitory effect of the compounds on the proliferation of Ba/F3-FL-TYK2-E957D cells were tested, apoptosis was detected, and the IC50 value was calculated. The inhibitory activity of the compounds against TYK2 kinase was evaluated based on the IC50 value.
as §3
Compounds were prepared into dilute solutions which was 1000 times of the final concentration. The compound was prepared into 20-times of the final concentration by diluting the compound with culture medium. 2 ul of 1000-times compound was added to per well to 98 ul of culture medium.
Cells (provided by Sundia Pharmaceutical Technology (Shanghai) Co., Ltd.) were resuspended and counted using an automated cell counter. The cell suspension was diluted to the desired density based on BaF3 seeding density of 2000 cells per well. Each well was plated with 95 ul of cells and incubated at 37° C. for stable equilibrium. 5 ul of 20-times compound was added to each well, with the wells to which the same volume of DMSO was added as a control.
The cell plate was equilibrated to room temperature. 40 ul CellTiter-Glo® Reagent was added to each well, shaken for 2 minutes and allowed to stand for 10 minutes. Detected with SpectraMax Paradigm.
• (1) IC50 was calculated using GraphPad Prism 5. • (2) % Inh=(Max signal−Compound signal)/(Max signal−Min signal)×100. • (3) Max signal was the positive control well with only the same volume of DMSO as the compound. • (4) Min signal was the negative control well with only the culture medium.

T3 sequence (P29597 whole entry E957D): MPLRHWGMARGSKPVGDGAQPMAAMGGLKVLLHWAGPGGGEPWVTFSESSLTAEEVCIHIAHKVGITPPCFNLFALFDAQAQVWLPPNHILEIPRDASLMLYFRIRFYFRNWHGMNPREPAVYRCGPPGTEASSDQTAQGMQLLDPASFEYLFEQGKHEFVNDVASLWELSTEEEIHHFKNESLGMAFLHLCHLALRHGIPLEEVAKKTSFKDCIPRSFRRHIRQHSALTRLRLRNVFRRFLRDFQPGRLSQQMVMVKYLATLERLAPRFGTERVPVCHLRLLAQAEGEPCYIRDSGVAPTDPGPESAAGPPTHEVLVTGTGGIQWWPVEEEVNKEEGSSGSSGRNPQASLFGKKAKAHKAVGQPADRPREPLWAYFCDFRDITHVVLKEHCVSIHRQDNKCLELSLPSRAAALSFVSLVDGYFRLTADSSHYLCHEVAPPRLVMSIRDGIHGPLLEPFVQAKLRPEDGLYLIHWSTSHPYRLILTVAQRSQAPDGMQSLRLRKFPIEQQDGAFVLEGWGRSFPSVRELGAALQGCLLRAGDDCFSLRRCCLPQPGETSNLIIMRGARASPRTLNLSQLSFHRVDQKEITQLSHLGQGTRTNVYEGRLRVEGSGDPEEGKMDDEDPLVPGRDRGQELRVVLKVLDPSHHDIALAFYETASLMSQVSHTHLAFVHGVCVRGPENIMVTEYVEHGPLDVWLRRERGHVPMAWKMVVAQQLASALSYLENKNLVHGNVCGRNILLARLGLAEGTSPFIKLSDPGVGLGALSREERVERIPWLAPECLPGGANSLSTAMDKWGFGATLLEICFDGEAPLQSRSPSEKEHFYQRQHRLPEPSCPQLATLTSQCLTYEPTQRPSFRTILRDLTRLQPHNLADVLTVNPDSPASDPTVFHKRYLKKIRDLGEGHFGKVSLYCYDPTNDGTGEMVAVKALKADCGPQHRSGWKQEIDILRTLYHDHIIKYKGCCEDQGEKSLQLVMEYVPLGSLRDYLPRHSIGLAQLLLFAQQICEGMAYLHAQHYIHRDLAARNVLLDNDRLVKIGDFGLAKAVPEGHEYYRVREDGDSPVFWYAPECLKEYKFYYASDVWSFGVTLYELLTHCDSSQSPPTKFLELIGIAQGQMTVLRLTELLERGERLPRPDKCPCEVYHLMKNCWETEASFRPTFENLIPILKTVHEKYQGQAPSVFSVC
T1 sequence (O60674 849-1132 limits assumed, change not shown): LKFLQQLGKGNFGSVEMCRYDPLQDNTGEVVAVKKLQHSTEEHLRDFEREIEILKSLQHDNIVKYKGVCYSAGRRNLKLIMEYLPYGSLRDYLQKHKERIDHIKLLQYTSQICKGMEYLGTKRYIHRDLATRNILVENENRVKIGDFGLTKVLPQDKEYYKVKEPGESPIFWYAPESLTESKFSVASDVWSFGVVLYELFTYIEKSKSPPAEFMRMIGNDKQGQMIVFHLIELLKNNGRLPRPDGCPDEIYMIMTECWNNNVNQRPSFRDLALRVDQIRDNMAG
T2 sequence (P52333 822-1111 limits assumed, change not shown): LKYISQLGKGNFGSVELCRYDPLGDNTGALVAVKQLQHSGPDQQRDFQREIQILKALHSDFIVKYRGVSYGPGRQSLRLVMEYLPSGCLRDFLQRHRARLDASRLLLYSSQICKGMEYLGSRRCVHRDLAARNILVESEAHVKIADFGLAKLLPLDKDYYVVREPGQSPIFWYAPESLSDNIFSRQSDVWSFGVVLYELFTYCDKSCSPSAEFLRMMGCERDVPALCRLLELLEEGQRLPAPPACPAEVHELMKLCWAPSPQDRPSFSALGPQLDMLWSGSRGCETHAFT

SMILES: [2H]C([2H])([2H])NC(=O)c1nnc(NC(=O)C2CC2)cc1Nc1cccc(-c2ncn(C)n2)c1OC [BMS-986165, Deucravacitinib, reference compound]
- GI50 (JAK2): > 1000 nM
- GI50 (JAK3): > 1000 nM
- IC50 [1]: 23.2 nM
- AUC [2]: 2804 ngh/mL
- F [2]: 28.5%
- Cmax ([2]; male, SD, rat, plasma): 229 ng/mL
- MRT ([2]; male, SD, rat, plasma): 6.43 h
- half-life ([2]; male, SD, rat, plasma): 3.68 h
- Solubility ([3]; pH 7, water, read-out: Solubility): 8.2 µg/mL (≈ 19.3 µM)
- AUC [4]: 1312 ngh/mL
- Cmax [4]: 222 ng/mL
- F [4]: 35.5%
- T1/2 [4]: 6.21 h

SMILES: CN=S(C)(=O)c1cc(F)c(N)nc1Nc1cc(NC(=O)C2CC2)nnc1C(=O)NC (stereo not shown) [Example 22, 4-((6-amino-3-(N,S-dimethylsulfoximino)-5-fluoropyridin-2-yl)amino)-6-(cyclopropylcarboxamido)-N-methylpyridazine-3-carboxamide]
- IC50 [1]: 13 nM

SMILES: CN=S(C)(=O)c1cc2c(Cl)c[nH]c2nc1Nc1cc(NC(=O)C2CC2)nnc1C(=O)NC (stereo not shown) [Example 32, 4-((3-chloro-5-(N,S-dimethylsulfoximino)-1H-pyrrolo[2,3-b]pyridin-6-yl)amino)-6-(cyclopropylamido)-N-methylpyridazine-3-carboxamide]
- IC50 (TYK2): 0.62 nM
- IC50 [1]: 16.1 nM

SMILES: [2H]C([2H])([2H])NC(=O)c1nnc(NC(=O)C2CC2)cc1Nc1nc(N)c(Cl)cc1[S@@](C)(=O)=NC [Example 38]
- Solubility [3]: 47 µg/mL (≈ 103 µM)

The remaining lines, values ahead:

- IC50 (TYK2): 2 nM
- IC50 [1]: 8.1 nM
SMILES: CN=S(C)(=O)c1cc(Cl)c(N)nc1Nc1cc(NC(=O)C2CC2)nnc1C(=O)NC (stereo not shown) [Example 23]

- IC50 (TYK2): 1.3 nM
- IC50 [1]: 7.5 nM
SMILES: CN=S(C)(=O)c1cc(Br)c(N)nc1Nc1cc(NC(=O)C2CC2)nnc1C(=O)NC (stereo not shown) [Example 24, 4-((6-amino-5-bromo-3-(N,S-dimethylsulfoximino)pyridin-2-yl)amino)-6-(cyclopropylcarboxamido)-N-methylpyridazine-3-carboxamide]

- IC50 [1]: 9.4 nM
SMILES: CN=S(C)(=O)c1cc(C)c(N)nc1Nc1cc(NC(=O)C2CC2)nnc1C(=O)NC (stereo not shown) [Example 26, 4-((6-amino-3-(N,S-dimethylsulfoximino)-5-methylpyridin-2-yl)amino)-6-(cyclopropylcarboxamido)-N-methylpyridazine-3-carboxamide]
